This note sets out measurements from patent US6958334B2, “Inhibitors of Akt activity” (Merck & Co., Inc., priority 2001, dated 2005).

For the assay, the system named is PKC (mix of isoforms). Description: PKC assay (counter screen). The following applies: myelin basic protein substrate; read-out: Counter screens IC50 (μM) PKC. In kind it is biochemical. How it is done:
Each PKC assay consists of the following components:
Final assay concentrations were as follows: 0.25 mM EGTA, 0.4 mM CaCl, 20 mM Tris pH 7.5, 10 mM MgCl, 1 mM 2-mercaptoethanol, 0.32 mg/ml phosphatidylserine, 0.032 mg/ml diacylglycerol, 10 μM ^33P-ATP, 70 μg/ml MBP, 10 ng/ml PKC, 0.1 mg/ml BSA.
Assays are performed using 96 deep well assay plates. In each assay well 10 μl of solvent control or appropriate inhibitor dilution with 5 μl ^33P-ATP (components #5 and #3) were premixed. In a separate tube, a mixture containing equal volumes of components #1, #2, #4, and #6 was prepared. The assay reaction was initiated, by adding 35 μl of the components #1, #2, #4, and #6 mixture to wells containing ^33P-ATP and inhibitor. The liquid in the assay wells was thoroughly mixed and the assay reactions incubated for 20 minutes at room temperature. The reactions were stopped by adding 100 mM EDTA (50 μl) and 100 mM sodium pyrophosphate (50 μl) and mixing. Phosphorylated MBP was collected on PVDF membranes in 96 well filter plates and quantitated by scintillation counting.

Regarding `CN(C)CC(C)(C)CNc1nn2c(-c3ccccc3)nnc2c2ccccc12` [Compound 1, 2,2,N,N-tetramethyl-N-(3-phenyl-[1,2,4]triazolo[3,4-α]phthalazin-6-yl)-propane-1,3-diamine], the half-inhibitory concentration (IC50) is above 40 µM.

Take `COc1ccc(-c2nnc3c4ccccc4c(NCC(C)(C)CN(C)C)nn23)cc1` [Compound 2, N′-[3-(4-Methoxy-phenyl)-[1,2,4]triazolo[4,3-α]phthalazin-6-yl)-2,2,N,N-tetramethyl-propane-1,3-diamine]: the IC50 is above 40 µM.

A word on the IC50: it is the concentration that gives 50% inhibition.
